# Experimental data from ChEMBL document CHEMBL1909612, “AHL-dependent quorum sensing inhibition: synthesis and biological evaluation of α-(N-alkyl-carboxamide)-γ-butyrolactones and α-(N-alkyl-sulfonamide)-γ-butyrolactones” (Bioorg Med Chem Lett, 2011).
# Active and inactive are the calls of the source. No cut-off for these calls is given here.
# Tests used:
# [1] = biological target: T1, Transcriptional activator protein LuxR (Aliivibrio fischeri) (UniProt P12746); assay: Agonist activity at Vibrio fischeri LuxR expressed in Escherichia coli NM522 containing Photorhabdus luminescens LuxCDABE assessed as induction of quorum sensing activation mediated bioluminescence at 0.1 to 200 uM after 4 to 5 hrs by bioluminescence assay; type: functional
# T1 sequence (whole entry): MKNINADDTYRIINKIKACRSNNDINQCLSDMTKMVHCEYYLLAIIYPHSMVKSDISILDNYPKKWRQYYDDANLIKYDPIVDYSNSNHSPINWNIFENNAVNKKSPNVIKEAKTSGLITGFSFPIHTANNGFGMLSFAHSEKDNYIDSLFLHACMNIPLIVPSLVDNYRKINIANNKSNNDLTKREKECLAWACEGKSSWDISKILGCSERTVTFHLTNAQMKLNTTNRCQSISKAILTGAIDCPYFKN
# [2] = biological target: T2, Transcriptional activator protein LuxR (Aliivibrio fischeri, UniProt P12746); assay: Antagonist activity at Vibrio fischeri LuxR expressed in Escherichia coli NM522 containing Photorhabdus luminescens LuxCDABE assessed as inhibition of 3-oxo-C6-HSL-induced quorum sensing activation mediated bioluminescence after 4 to 5 hrs by bioluminescence assay; type: functional
# T2 sequence (P12746 whole entry): T1 sequence (whole entry)
SMILES,Activity [1],IC50 [2]
CCCCCNC(=O)C1CCCC1O (mixture of isomers) [listing 1 of 2 here],inactive,
CCCCCNC(=O)C1CCCC1O (mixture of isomers) [listing 2 of 2 here],,200 µM
CCCCN(C)C(=O)C1CCOC1=O (stereo not drawn),inactive,
CCCCNS(=O)(=O)C1CCOC1=O (stereo not drawn),inactive,> 200 µM
CCCCNC(=O)C1CCOC1=O (stereo not drawn),inactive,96 µM
CCCCCNC(=O)C1CCOC1=O (stereo not drawn),inactive,34 µM

# Continued, values first:
Activity [1],IC50 [2],SMILES
inactive,52 µM,CCCCCCCCNC(=O)C1CCOC1=O (stereo not drawn)
,92 µM,CCCCCNC(=O)C1CCCC1O (stereo not drawn)
inactive,40 µM,CCCCCNC(=O)C1CCCC1=O (stereo not drawn)
inactive,70 µM,CCCCCNS(=O)(=O)C1CCOC1=O (stereo not drawn)
inactive,,CCCCCCN(C)C(=O)C1CCOC1=O (stereo not drawn)
inactive,75 µM,CCCCCCCCCCNC(=O)C1CCOC1=O (stereo not drawn)
inactive,54 µM,CCCCCCNC(=O)C1CCOC1=O (stereo not drawn)
inactive,77 µM,CCCCCCCCNC(=O)C1CCCC1=O (stereo not drawn)
